Results from patent US10266823B2, “Small molecules that enhance the activity of oligonucleotides” (The University of North Carolina at Chapel Hill, priority 2014, dated 2019).

Columns and labels:
[1] = system: HeLaLuc705 cells; assay: SSO623-mediated luciferase induction (splice correction), 24 well format; type: cell-based, human; conditions: for enhancement of luciferase induction as compared to SSO alone: 2 h, 100 nM SSO623
Description: FIG. 1B. SSO Dose-response of hit compounds. Selected hits were examined for their ability to enhance splice correction by SSO623 in the HeLa Luc 705 cell system. Cells were incubated in 24 well plates with 100 nM 623 or its mismatched control (MM) for 16 h in DMEM+10% FBS, rinsed, and then treated with various concentrations of the hit compounds, or with 100 uM Retro-1, for 2 h. The cells were then rinsed and incubation continued for an additional 4 h in DMEM+10% FBS. Cells were rinsed twice in PBS and luciferase activity (RLU) and cell protein determined. Means+/−SE. N=3. Mismatched controls were at baseline level on this scale and are not shown.
(§1) Luciferase induction dose-response curves in a 24 well plate format with normalization on cell protein were performed as previously described (Alam, M. R. et al., Nucleic Acids Res, 36, 2764-2776 (2008), Ming, X., et al., Nucleic Acids Res, 38, 6567-6576 (2010)). Splicing modulation of the EGFP654 reporter and of endogenous Bcl-X were monitored by RT-PCR using appropriate primers. Evaluation of hit compound effects on antisense actions involved ‘knockdown’ of MDR1 pre-mRNA and its protein product in multi-drug resistant mouse 3T3 cells. Cell surface expression of P-glycoprotein was monitored using an Alexa-488 conjugated monoclonal antibody and flow cytometry as previously described (Ming, X. et al., Nucleic Acids Res, 41, 3673-3687 (2013), Fisher, M., et al., Nucleic Acids Res, 35, 1064-1074 (2007)). Evaluation of effects on siRNA utilized a HeLa cell line stably transfected with an EGFP expression cassette. Cholesterol-conjugated siRNAs were used to attain sufficient uptake. Cells were incubated with the siEGFP or control siRNA, rinsed, and then briefly exposed to hit compound. After further incubation expression of EGFP was monitored by flow cytometry. In cases where treatment with Lipofectamine 2000 was used as a positive control, the manufacturer's protocol was followed.

[2] = system: A375Luc705 cells; assay: Luciferase induction by RGD-SSO-albumin conjugate; type: cell-based, human; conditions: 2 h, 100 nM RGD-SSO-albumin conjugate
Description: FIG. 2. Effects on Receptor-Targeted oligonucleotides. A375Luc705 cells were treated with 100 nM RGD-SSO-albumin conjugate for 16 h and subsequently treated with Retro-1 (100 uM) or 7938 (5, 10 uM) for 2 h. After removal of the compound the cells were incubated for a further 24 h and then assayed for luciferase and cell protein. (A) Control; (B) RGD-SSO conjugate only; (C) RGD-SSO conjugate plus Retrol; (D) RGD-SSO conjugate plus 5 uM 7938; (E) RGD-SSO conjugate plus 10 uM 7938. Means+/−SE. N=3.
Our laboratory has pursued the use of ligand-oligonucleotide conjugates to attain receptor-selective targeted delivery (Alam, M. R., et al., Bioconjugate chemistry, 22, 1673-1681 (2011), Ming, X., et al., Biomaterials, 34, 7939-7949 (2013), Nakagawa, O., et al., Bioconjugate chemistry, 25, 165-170 (2014)). Thus we were interested in whether our compounds would affect oligonucleotides that enter cells by receptor-mediated endocytosis. We used a previously described (Ming, X., et al., Biomaterials, 34, 7939-7949 (2013)) multivalent conjugate comprised of several RGD peptide-conjugated morpholino SSOs further conjugated via bioreversible links to serum albumin as a carrier. […] We examined luciferase induction in αvβ3-expressing A375 melanoma cells that contain the Luc705 expression cassette. […] Thus 7938 can substantially enhance effects of receptor targeted oligonucleotide conjugates. […]

[3] = system: HeLaLuc705 cells; assay: High throughput screen, SSO623 luciferase induction, 384 well; type: cell-based, human; conditions: library compounds at 25 uM, 5 h; 100 nM SSO623
Description: Our high throughput screen (HTS) utilized HeLaLuc705 cells. Delivery of an appropriate SSO to the nucleus corrects splicing and induces luciferase expression thus providing an easily interpreted positive readout (Iam, M. R. et al., Nucleic Acids Res, 36, 2764-2776 (2008), Ming, X., et al., Nucleic Acids Res, 38, 6567-6576 (2010)). Cells were trypsinized, rinsed, and suspended in Opti-MEM at 300,000 cells/ml; SSO623 was added to a final concentration of 100 nM. No lipid or polymer transfection agents were used in these assays. Opti-MEM (15 ul) followed by cell suspension (20 ul) was added to wells of 384 well plates. Cells were allowed to attach and incubate with the SSO for 16 h. During this 16 h period a set of positive control wells received chloroquine to a final concentration of 300 uM while a set of negative control wells received diluent. After the initial incubation the remaining wells received library compounds to a final concentration of 25 uM. Incubation with library compounds was at 37 C for 5 h at which time the cells were harvested and analyzed for luciferase induction. Library compounds that produced an induction of 50% that of the positive controls were considered positive in this assay and were further analyzed. Dose-response curves were developed comparing SSO623 with a mis-matched oligonucleotide. […]

[4] = system: EGFP654 transgenic mouse; assay: In vivo splice correction in EGFP654 transgenic mouse
Excerpt: FIG. 4. In vivo effects: Quantitation of RT-PCR. Gel bands were quantitated using a Typhoon imaging system. Percent of switching is the ratio of lower band to upper band ×100. *** difference from PBS control significant at the 0.001 level.
(§2) All animal procedures were in accordance with guidelines of the UNC Laboratory Animal Medicine Department and with federal guidelines. The EGFP654 transgenic mouse has been described previously (Sazani, P., et al., Nature biotechnology, 20, 1228-1233 (2002), Roberts, J., et al., Mol Ther, 14, 471-475 (2006)). A reporter gene comprised of the EGFP coding sequence is interrupted by an aberrantly spliced intron. Delivery of an appropriate SSO to the nucleus of tissue cells will correct splicing leading the expression of normal EGFP mRNA and protein. EGFP654 mice were administered 25 mg/kg SS0623 or mis-matched oligonucleotide in PBS by intra-peritoneal injection on two consecutive days. One day later the mice received 7.5 mg/kg UNC10217938A intravenously in a diluent of 5% PEG400, or diluent only. After 24 h the mice were euthanized and cardiac blood and tissues samples collected. Tissues for fluorescence microscopy to visualize EGFP were fixed in cold 1.5% paraformaldehyde in PBS and then processed for cryosectioning (Sazani, P., et al., Nature biotechnology, 20, 1228-1233 (2002)). Tissues for RNA analysis were collected from mice euthanized at 4 h and ere quick frozen on dry ice. All procedures involving live animals were conducted by the UNC Animal Studies Core facility. Blood samples were analyzed by the UNC Animal Clinical Chemistry Core facility.
In the EGFP654 transgenic line a reporter gene comprised of the EGFP coding sequence is interrupted by an aberrantly spliced intron. Effective delivery of an appropriate SSO to the nucleus of tissue cells will correct splicing leading to expression of normal EGFP mRNA and protein in that tissue. We visualized EGFP expression by fluorescence microscopy of tissue cryosections and evaluated correction of EGFP pre-mRNA splicing by RT-PCR. […]

[5] = system: C57BL/6 mice; assay: 7 day toxicity study; type: in vivo; conditions: doses that overlap those of FIG. 4, data not shown
[6] = system: HeLa cells; assay: Live cell confocal microscopy: subcellular distribution of TAMRA oligonucleotide and organelle markers; type: cell-based, human
Description: FIG. 3A: Effects on Cell Morphology and Subcellular Distribution of Oligonucleotide: Quantitation of Colocalization. HeLa cells were transfected with baculovirus expression vectors for GFP-Rab7a (late endosome marker) or GFP-LAMP-1 (lysosome marker). The cells were then incubated with 300 nM SSO 623-TAMRA for 16 h. Cells were then treated with 10 uM 7938 for 1 h or maintained as controls. Live cells were imaged using a confocal microscope with environmental stage. Co-localization of GFP and TAMRA oligonucleotide was quantitated using the Image J Coloc2 plug-in and expressed as the Manders correlation coefficient. Individual cells were analyzed and the data summated. Means and standard errors shown. N=9-20. ** represents p<0.002 compared to Rab 7 control.
FIG. 3B. Effects on Cell Morphology and Subcellular Distribution of Oligonucleotide: Nuclear Accumulation. TAMRA fluorescence intensity in the nucleus was quantitated using Image J. Means and standard errors shown. N=55-70. *** represents p<0.001 compared to Control.
Quantitative live cell confocal microscopy (Dunn, K. W., et al., Am J Physiol Cell Physiol, 300, C723-742 (2011)) was performed to examine the subcellular distribution of fluorescent oligonucleotide or of certain markers for endomembrane compartments. Cells (HeLa) were transfected with baculovirus expression vectors for GFP chimeras of marker proteins for several endomembrane compartments. The day following transfection, cells were incubated for 4 h with 300 nM TAMRA conjugated SSO 623 in OptiMEM after which the cells were washed and incubated in DMEM medium with 1% FBS. In some cases hit compounds were added during or after the incubation. Cells were imaged on an Olympus FV1000 MPE laser scanning confocal microscope with environmental chamber to maintain 37 C, 40% humidity and 5% C02. We used 488 nm (GFP) and 559 nm (TAMRA) as laser lines, and images were collected with a 60× oil immersion lens. Quantitation of co-localization of oligonucleotide and marker proteins utilized the Coloc2 plug-in in Image J. In some cases GFP markers for organelles were examined in cells previously fixed in 4% formaldehyde in PBS.

[7] = system: EGFP654 mice; assay: Acute toxicity, blood chemistry parameters in EGFP654 mice; type: in vivo, mouse; conditions: 7.5 mg/kg i.v.; data not shown
Excerpt: as §2

[8] = system: HeLa cell line stably transfected with an EGFP expression cassette; assay: Cholesterol-conjugated siEGFP reduction of EGFP, flow cytometry; type: cell-based, human; conditions: cholesterol-conjugated siRNA
Description: as §1

[9] = system: P-glycoprotein multidrug transporter in multi-drug resistant 3T3 cells; assay: Antisense knockdown of P-glycoprotein (anti-MDR1 ASO), flow cytometry; type: cell-based, mouse
Description: as §1, with “followed. […]” for “followed.”

[10] = 10 uM, 1 h, Manders correlation coefficient

| Structure (SMILES) | enhancement of luciferase induction as compared to SSO alone ([1]; 100 uM compound) [fold] | ability of the conjugate to induce luciferase ([2]; 100 uM compound) | enhancement of luciferase induction as compared to SSO alone ([1]; 10 uM compound) [fold] | enhancement of luciferase induction as compared to SSO alone ([1]; 20 uM compound) [fold] | amount of SSO at which strong induction effects were observed ([1]; SSO varied, constant concentration of compound) [nM] | activity in high throughput screen [3] | EGFP fluorescence in liver, kidney and heart ([4]; SS0623 25 mg/kg i.p. on two days, then 7.5 mg/kg compound i.v., 24 h) | correction of EGFP pre-mRNA splicing by RT-PCR in liver, kidney and heart ([4]; SS0623 followed by compound, RNA at 4 h) | EGFP induction in skeletal muscle ([4]; SS0623 followed by compound, data not shown) | toxicity [5] | co-localization of TAMRA-oligonucleotide with late endosome marker Rab7 [6, 10] | co-localization of TAMRA-oligonucleotide with lysosomal marker LAMP-1 [6, 10] | accumulation of Tamra-oligonucleotide in the nucleus ([6]; TAMRA fluorescence intensity in the nucleus) | release of fluorescent dextran from endosomes ([6]; dextran of molecular mass similar to an oligonucleotide, data not shown) | acute toxicity (blood chemistry parameters) [7] | ability of siEGFP to reduce levels of EGFP [8] | amount of ASO at which strong effects were observed ([9]; ASO varied, constant concentration of compound) [nM] | enhancement of ASO action (P-glycoprotein knockdown) ([9]; anti-MDR1 ASO, data not shown) | ability of the conjugate to induce luciferase ([2]; 5 or 10 uM compound, compared with 100 uM Retro-1) |
| --- | --- | --- | --- | --- | --- | --- | --- | --- | --- | --- | --- | --- | --- | --- | --- | --- | --- | --- | --- |
| CCC(=O)N1CC(=O)Nc2ccc(Br)cc2C1c1ccccc1 (stereo not shown) [Retro-1, reference compound] | 11 | increased | – | – | – | – | – | – | – | – | – | – | – | – | – | – | – | – | – |
| CCOC(=O)Nc1cc(NCCN(C)C)c2nc(-c3ccccc3)c(-c3ccccc3)nc2n1 [compound 7938] | – | – | 60 | 220 | 3 | active | distinct increases | correctly spliced EGFP message was found | not strongly affected | no significant evidence of toxicity | major reduction | little effect | increase | partially released | did not result in acute toxicity | enhanced | 5 | strongly enhanced | far larger impact |
